According to US20130071854A1, “METHODS FOR THE IDENTIFICATION AND CHARACTERIZATION OF HDAC INTERACTING COMPOUNDS” (priority 2009, published 2013):
Blank lines part the entries; values can stand above or below the compound they belong to.

Legend:
recombinant HDACs 1-11 = assay: Binding of probe matrix to recombinant HDACs purified from Sf9 cells, competition by free SAHA; details: recombinant HDACs 1-11 purified from Sf9 cells
HDAC6 = molecular target: T1, HDAC6 (Homo sapiens, UniProt Q9UBN7); assay: Compound screening, competition binding with SAHA-beads, antibody dot-blot arrays, Jurkat and Ramos whole cell extract; design: endogenous in cells; Jurkat/Ramos whole cell extract
T1 sequence (Q9UBN7 1-1215): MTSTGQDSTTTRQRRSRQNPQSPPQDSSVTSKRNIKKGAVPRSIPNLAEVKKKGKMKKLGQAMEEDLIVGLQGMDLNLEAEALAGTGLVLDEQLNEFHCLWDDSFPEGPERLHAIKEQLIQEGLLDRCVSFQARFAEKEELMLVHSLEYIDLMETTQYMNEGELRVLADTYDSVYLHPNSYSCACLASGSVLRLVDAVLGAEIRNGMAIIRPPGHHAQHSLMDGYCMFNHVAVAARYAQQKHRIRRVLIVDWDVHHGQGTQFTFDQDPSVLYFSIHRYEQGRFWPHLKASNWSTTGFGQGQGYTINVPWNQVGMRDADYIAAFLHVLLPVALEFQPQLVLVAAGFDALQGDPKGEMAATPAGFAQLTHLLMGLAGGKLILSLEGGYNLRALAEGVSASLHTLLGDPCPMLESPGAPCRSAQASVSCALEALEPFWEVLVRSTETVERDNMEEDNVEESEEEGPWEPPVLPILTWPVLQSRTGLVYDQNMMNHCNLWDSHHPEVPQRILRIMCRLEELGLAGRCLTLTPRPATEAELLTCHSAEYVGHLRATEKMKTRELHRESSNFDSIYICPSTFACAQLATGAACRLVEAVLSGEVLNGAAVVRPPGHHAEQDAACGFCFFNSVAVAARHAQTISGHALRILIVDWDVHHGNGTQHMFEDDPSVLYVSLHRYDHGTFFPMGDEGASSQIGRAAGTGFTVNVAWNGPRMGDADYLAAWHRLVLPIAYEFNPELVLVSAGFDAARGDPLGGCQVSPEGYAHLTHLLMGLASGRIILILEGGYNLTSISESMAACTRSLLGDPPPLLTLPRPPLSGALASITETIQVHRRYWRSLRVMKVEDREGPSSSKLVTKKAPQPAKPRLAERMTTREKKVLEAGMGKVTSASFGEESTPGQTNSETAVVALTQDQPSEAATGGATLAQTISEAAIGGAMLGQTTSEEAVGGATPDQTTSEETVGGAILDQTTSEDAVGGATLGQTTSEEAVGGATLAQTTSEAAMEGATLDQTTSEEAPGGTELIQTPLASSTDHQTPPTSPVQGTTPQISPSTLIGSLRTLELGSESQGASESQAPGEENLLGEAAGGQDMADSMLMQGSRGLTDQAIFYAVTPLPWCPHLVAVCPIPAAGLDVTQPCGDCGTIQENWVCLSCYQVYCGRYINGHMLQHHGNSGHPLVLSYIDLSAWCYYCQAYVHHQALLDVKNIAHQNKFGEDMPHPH
From the text: To enable the discovery of novel selective HDACi we developed a high throughput variation of the chemoproteomics protocol in which MS/MS detection is replaced with multiplexed fluorescent antibody detection on “dot blot” type arrays. The method was applied to the screening of a focused compound library in whole cell extract of Jurkat and Ramos cells for inhibitors of HDAC1, 2, 3 and 6. Several hits were obtained with a few compounds displaying a notable degree of selectivity (FIG. 35a). […] The cellular potency for tubulin deacetylation correlated with the potency for one of the drugs' anti-inflammatory effects, the secretion of IFNα in peripheral blood mononuclear cells (FIG. 35d).
The compounds for screening was selected either for their potential to be Zinc chelators or based on a similarity search of the compound collections from Asinex Corp. (Winston-Salem, N.C., USA) and Enamine (Mammouth_Jct., NJ, USA), using a training set of 140 known HDAC inhibitors. Competition binding assays using SAHA-beads were performed essentially as described above but adapted to a 96-well format. 1 mg of cell lysate and 5 μl of beads were used per well. Compounds from the screening library including reference compounds as standards were added at 20 μM and 100 μM final concentration from 50×DMSO stocks. Each plate contained 8 positive (TSA 50 μM) and eight negative controls (2% DMSO). […]

[1] = test system: histone acetylation, K562 cells; assay: Mapping of histone acetylation by LC-MS/MS of K562 cells treated with HDACi; format: cell-based, human; details: K562 cells treated 6 hours, isobaric tagging and MS/MS

Structure (SMILES): O=C(CCCCCCC(=O)Nc1ccccc1)NO [SAHA, suberoylanilide hydroxamic acid]
competition of capture of recombinant HDACs by the probe matrix (in words) (recombinant HDACs 1-11): only affected at a high excess of free SAHA

screen result for HDAC6 (in words) (HDAC6): preferentially affect HDAC6
Structure (SMILES): CCCCOc1ccc(CC(=O)NO)cc1 [bufexamac]

Structure (SMILES): CCCC(CCC)C(=O)O [valproate, valproic acid]
abundance of acetylated histone peptides (in words) [1]: more selective effect
